Reference: ChEMBL document CHEMBL3580553, “Potent and Nontoxic Chemosensitizer of P-Glycoprotein-Mediated Multidrug Resistance in Cancer: Synthesis and Evaluation of Methylated Epigallocatechin, Gallocatechin, and Dihydromyricetin Derivatives” (J Med Chem, 2015)

Columns and labels:
[1] = target: ATP-dependent translocase ABCB1 (Homo sapiens, UniProt P08183); test: Modulation of P-gp (unknown origin) transfected in human MDA435/LCC6MDR cells assessed as reversible of paclitaxel resistance measured as IC50 for paclitaxel at 1 uM after 5 days by CellTiter 96 Aqueous assay relative to PTX alone treated cell; format: cell-based; conditions: 120 h
[2] = Cytotoxicity against human LCC-6 cells after 3 days by MTS assay; format: functional, cell-based; conditions: LCC-6, 72 h
[3] = Cytotoxicity against human MDA435/LCC6MDR cells after 3 days by MTS assay; format: functional, cell-based; conditions: 72 h
L929 = test: Cytotoxicity against mouse L929 cells after 3 days by MTS assay; format: cell-based; conditions: L929, 72 h
[4] = Modulation of P-gp (unknown origin) transfected in human MDA435/LCC6MDR cells assessed as reversible of paclitaxel resistance measured as IC50 for paclitaxel at 1 uM after 5 days by CellTiter 96 Aqueous assay
[5] = Selectivity index, ratio of IC50 for mouse […] cells to EC50 for modulation of P-gp (unknown origin) transfected in human MDA435/LCC6MDR cells assessed as reversing paclitaxel resistance; design: species or system L929

ATP-dependent translocase ABCB1, sequence (P08183 whole entry): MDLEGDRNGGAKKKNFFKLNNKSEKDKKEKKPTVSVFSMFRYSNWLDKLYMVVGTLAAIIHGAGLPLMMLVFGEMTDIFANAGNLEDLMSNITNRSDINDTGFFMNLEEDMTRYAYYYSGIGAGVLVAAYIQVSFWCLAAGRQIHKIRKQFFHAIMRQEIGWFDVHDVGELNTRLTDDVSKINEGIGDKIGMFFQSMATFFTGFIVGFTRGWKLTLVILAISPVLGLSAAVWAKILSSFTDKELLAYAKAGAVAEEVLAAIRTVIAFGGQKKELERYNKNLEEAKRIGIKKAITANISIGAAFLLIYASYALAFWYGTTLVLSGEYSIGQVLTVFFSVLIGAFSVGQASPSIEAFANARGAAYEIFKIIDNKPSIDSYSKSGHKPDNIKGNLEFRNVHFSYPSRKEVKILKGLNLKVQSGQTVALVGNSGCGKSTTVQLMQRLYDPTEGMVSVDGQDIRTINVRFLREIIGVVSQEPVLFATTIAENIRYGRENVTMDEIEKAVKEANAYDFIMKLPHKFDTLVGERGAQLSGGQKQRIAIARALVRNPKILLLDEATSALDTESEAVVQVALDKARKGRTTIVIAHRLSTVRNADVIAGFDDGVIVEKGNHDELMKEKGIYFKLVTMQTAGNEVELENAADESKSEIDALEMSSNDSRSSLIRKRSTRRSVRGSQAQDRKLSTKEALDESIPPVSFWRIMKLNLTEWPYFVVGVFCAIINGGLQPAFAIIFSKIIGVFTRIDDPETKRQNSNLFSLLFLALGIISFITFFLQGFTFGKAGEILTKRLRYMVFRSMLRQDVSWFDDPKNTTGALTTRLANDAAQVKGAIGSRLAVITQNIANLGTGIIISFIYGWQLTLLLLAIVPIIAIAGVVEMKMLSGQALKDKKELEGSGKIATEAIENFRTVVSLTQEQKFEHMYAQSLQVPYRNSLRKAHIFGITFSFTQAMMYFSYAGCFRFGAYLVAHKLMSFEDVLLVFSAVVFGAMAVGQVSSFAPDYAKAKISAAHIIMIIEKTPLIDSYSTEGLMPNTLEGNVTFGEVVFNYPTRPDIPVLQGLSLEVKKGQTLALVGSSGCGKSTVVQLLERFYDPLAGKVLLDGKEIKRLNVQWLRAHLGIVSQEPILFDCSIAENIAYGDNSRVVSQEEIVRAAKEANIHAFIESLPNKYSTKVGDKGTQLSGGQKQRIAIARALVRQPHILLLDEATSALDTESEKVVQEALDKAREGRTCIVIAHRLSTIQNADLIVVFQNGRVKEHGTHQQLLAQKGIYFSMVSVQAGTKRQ

Row | Compound | Ratio [1] | IC50 [4] [µM] | IC50 [2] [µM] | IC50 [3] [µM] | IC50 (L929) [µM] | Ratio IC50/EC50 [5]
1 | COc1ccc(CCC(=O)O[C@@H]2Cc3c(OC)cc(OC)cc3O[C@@H]2c2cc(OC)c(OC)c(OC)c2)cc1 | 3.6 | – | – | – | – | –
2 | COc1ccc(/C=C/C(=O)O[C@@H]2Cc3c(OC)cc(OC)cc3O[C@@H]2c2cc(OC)c(OC)c(OC)c2)cc1 | 6.6 | – | > 100 | > 100 | > 100 | –
3 | COc1cc(OC)c2c(c1)O[C@H](c1cc(OC)c(OC)c(OC)c1)[C@H](OC(=O)c1ccc(F)c(NC(=O)c3ccc(F)c(NC(=O)c4cc(OC)c(OC)c(OC)c4)c3)c1)C2 | 10.8 | – | – | – | – | –
4 | COc1ccc(C(=O)O[C@@H]2Cc3c(OC)cc(OC)cc3O[C@@H]2c2cc(OC)c(OC)c(OC)c2)cc1 | 1 | – | > 100 | > 84 | > 100 | –
5 | COc1cc(OC)c2c(c1)O[C@H](c1cc(OC)c(OC)c(OC)c1)[C@H](OC(=O)c1ccc(F)c(NC(=O)/C=C/c3ccc(OC)c(OC)c3)c1)C2 | 17.9 | 0.0081 | > 100 | > 100 | > 100 | –
6 | COc1cc(OC)c2c(c1)O[C@H](c1cc(OC)c(OC)c(OC)c1)[C@@H](O)C2 | 1.1 | – | – | – | – | –
7 | COc1ccc(C(=O)Nc2cc(C(=O)Nc3cc(C(=O)O[C@@H]4Cc5c(OC)cc(OC)cc5O[C@@H]4c4cc(OC)c(OC)c(OC)c4)ccc3F)ccc2F)cc1 | 9.2 | 0.0157 | – | – | – | –
8 | COc1ccc(/C=C/C(=O)O[C@H]2Cc3c(OC)cc(OC)cc3O[C@@H]2c2cc(OC)c(OC)c(OC)c2)cc1 | 7.8 | – | – | – | – | –
9 | COc1cc(OC)c2c(c1)O[C@H](c1cc(OC)c(OC)c(OC)c1)[C@H](OC(=O)Cc1cc(OC)c(OC)c(OC)c1)C2 | 5.8 | 0.025 | – | – | – | –
10 | COc1cc(OC)c2c(c1)O[C@H](c1cc(OC)c(OC)c(OC)c1)[C@@H](OC(=O)c1ccc(F)c(NC(=O)/C=C/c3cc(OC)c(OC)c(OC)c3)c1)C2=O | 5.2 | – | – | – | – | –
11 | COc1cc(OC)c2c(c1)O[C@H](c1cc(OC)c(OC)c(OC)c1)[C@@H](OC(=O)c1ccc(F)c(NC(=O)/C=C/c3ccc(OC)c(OC)c3)c1)C2=O | 10 | 0.0144 | – | – | – | –
12 | COc1ccc(C(=O)OCCOc2c(-c3ccc(OC)c(OC)c3)oc3cc(OC)cc(OC)c3c2=O)cc1 | 6 | – | – | – | – | –
13 | COc1cc(OC)c2c(c1)O[C@H](c1cc(OC)c(OC)c(OC)c1)[C@H](OC(=O)/C=C/c1ccc(OC)c(OC)c1)C2 | 16.6 | – | > 100 | > 100 | > 100 | >638
14 | COc1cc(OC)c2c(=O)c(OCCOC(=O)/C=C/c3cc(OC)c(OC)c(OC)c3)c(-c3ccc(OC)c(OC)c3)oc2c1 | 11.2 | – | – | – | – | –
15 | COc1cc(OC)c2c(c1)O[C@H](c1cc(OC)c(OC)c(OC)c1)[C@@H](OC(=O)/C=C/c1cc(OC)c(OC)c(OC)c1)C2 | – | – | > 100 | > 100 | > 100 | –
16 | CC(=O)O[C@H]1C(=O)[C@@]2(C)[C@H]([C@H](OC(=O)c3ccccc3)[C@]3(O)C[C@H](OC(=O)[C@H](O)[C@@H](NC(=O)c4ccccc4)c4ccccc4)C(C)=C1C3(C)C)[C@]1(OC(C)=O)CO[C@@H]1C[C@@H]2O [PACLITAXEL] | – | – | 0.0016 | 0.145 | – | –
17 | COc1cc(OC)c2c(c1)O[C@H](c1cc(OC)c(OC)c(OC)c1)[C@H](OC(=O)c1ccc(F)c(N(C)C)c1)C2 | 4 | – | > 100 | > 100 | > 100 | –
18 | COc1cc(OC)c2c(c1)O[C@H](c1cc(OC)c(OC)c(OC)c1)[C@H](OC(=O)c1ccc(F)cc1)C2 | 2.7 | – | > 100 | > 100 | > 100 | –
19 | COc1cc(OC)c2c(c1)O[C@H](c1cc(OC)c(OC)c(OC)c1)[C@@H](OC(C)=O)C2=O | 1.4 | – | – | – | – | –
20 | COc1cc(OC)c2c(c1)O[C@H](c1cc(OC)c(OC)c(OC)c1)[C@@H](OC(=O)c1cc(OC)c(OC)c(OC)c1)C2 | 3 | – | – | – | – | –
21 | COc1cc(OC)c2c(c1)O[C@H](c1cc(OC)c(OC)c(OC)c1)[C@@H](OC(=O)c1ccc(OC)c(OC)c1)C2 | 12.1 | – | – | – | – | –
22 | COc1cccc(C(=O)O[C@@H]2Cc3c(OC)cc(OC)cc3O[C@@H]2c2cc(OC)c(OC)c(OC)c2)c1 | 3.2 | – | > 100 | > 100 | > 100 | –
23 | CCOc1cc(C(=O)O[C@@H]2Cc3c(OC)cc(OC)cc3O[C@@H]2c2cc(OC)c(OC)c(OC)c2)cc(OCC)c1OCC | 1.3 | – | > 100 | > 100 | > 100 | –

More lines, main results first:

Row | Ratio [1] | IC50 [4] [µM] | Compound | IC50 [2] [µM] | IC50 [3] [µM] | IC50 (L929) [µM] | Ratio IC50/EC50 [5]
24 | 7.6 | – | COc1cc(OC)c2c(c1)O[C@H](c1cc(OC)c(OC)c(OC)c1)[C@H](OC(=O)CCc1ccc(OC)c(OC)c1)C2 | – | – | – | –
25 | 3.6 | – | COc1ccc(/C=C/C(=O)O[C@H]2C(=O)c3c(OC)cc(OC)cc3O[C@@H]2c2cc(OC)c(OC)c(OC)c2)cc1 | – | – | – | –
26 | 1.5 | – | COc1cc(OC)c2c(c1)O[C@H](c1cc(OC)c(OC)c(OC)c1)[C@H](OC(=O)c1cccc(F)c1)C2 | > 100 | > 100 | > 100 | –
27 | 2.2 | – | COc1ccc(C(=O)O[C@H]2Cc3c(OC)cc(OC)cc3O[C@@H]2c2cc(OC)c(OC)c(OC)c2)cc1 | – | – | – | –
28 | 7.4 | – | COc1cc(OC)c2c(c1)O[C@H](c1cc(OC)c(OC)c(OC)c1)[C@H](OC(=O)c1ccc(OC)c(OC)c1)C2 | > 100 | > 100 | > 100 | –
29 | 0.9 | 0.1552 | COc1cc(OC)c2c(c1)O[C@H](c1cc(OC)c(OC)c(OC)c1)[C@H](O)C2 | > 100 | > 75 | > 100 | –
30 | 2.1 | – | COc1cc(O)c2c(=O)c(OC(=O)c3cc(OC)c(OC)c(OC)c3)c(-c3ccc(OC)c(OC)c3)oc2c1 | – | – | – | –
31 | 3.3 | – | COc1cc(OC)c2c(c1)O[C@H](c1cc(OC)c(OC)c(OC)c1)[C@@H](OC(=O)c1cc(OC)c(OC)c(OC)c1)C2=O | – | – | – | –
32 | 4 | – | COc1cc(OC)c2c(c1)O[C@H](c1cc(OC)c(OC)c(OC)c1)[C@@H](OC(=O)c1ccc(F)c(NC(=O)c3cc(OC)c(OC)c(OC)c3)c1)C2=O | – | – | – | –
33 | 34.4 | 0.0042 | COc1cc(OC)c2c(c1)O[C@H](c1cc(OC)c(OC)c(OC)c1)[C@@H](OC(=O)c1ccc(F)c(NC(=O)/C=C/c3cc(OC)c(OC)c(OC)c3)c1)C2 | > 100 | > 100 | > 100 | >444
34 | 4.6 | – | C=CCOc1cc(C(=O)O[C@H]2C(=O)c3c(OC)cc(OC)cc3O[C@@H]2c2cc(OC)c(OC)c(OC)c2)cc(OCC=C)c1OCC=C | – | – | – | –
35 | 15.4 | – | COc1cc(OC)c2c(c1)O[C@H](c1cc(OC)c(OC)c(OC)c1)[C@@H](OC(=O)c1ccc(F)c(NC(=O)c3ccc(OC)c(OC)c3)c1)C2=O | – | – | – | –
36 | 5.5 | 0.0262 | COc1cc(OC)c2c(c1)O[C@H](c1cc(OC)c(OC)c(OC)c1)[C@@H](OC(=O)/C=C/c1ccc(OC)c(OC)c1)C2=O | – | – | – | –
37 | 8 | – | COc1cc(OC)c2c(c1)O[C@H](c1cc(OC)c(OC)c(OC)c1)[C@H](OC(=O)CCc1cc(OC)c(OC)c(OC)c1)C2 | – | – | – | –
38 | 0.8 | – | CC(=O)Oc1cc(OC(C)=O)c2c(c1)O[C@H](c1cc(OC(C)=O)c(OC(C)=O)c(OC(C)=O)c1)[C@H](OC(=O)c1cc(OC(C)=O)c(OC(C)=O)c(OC(C)=O)c1)C2 | 71.5 | 31.7 | 41.4 | –
39 | 9.1 | 0.0159 | COc1cc(OC)c2c(c1)O[C@H](c1cc(OC)c(OC)c(OC)c1)[C@@H](OC(=O)/C=C/c1cc(OC)c(OC)c(OC)c1)C2=O | – | – | – | –
40 | 12.1 | – | C=CCOc1cc(C(=O)O[C@@H]2Cc3c(OC)cc(OC)cc3O[C@@H]2c2cc(OC)c(OC)c(OC)c2)cc(OCC=C)c1OCC=C | > 100 | > 100 | > 100 | –
41 | 21.9 | – | COc1cc(OC)c2c(c1)O[C@H](c1cc(OC)c(OC)c(OC)c1)[C@@H](OC(=O)c1ccc(F)c(NC(=O)/C=C/c3ccc(OC)c(OC)c3)c1)C2 | > 100 | > 100 | > 100 | >357
42 | 12.3 | 0.0118 | COc1cc(OC)c2c(c1)O[C@H](c1cc(OC)c(OC)c(OC)c1)[C@@H](OC(=O)/C=C/c1ccc(OC)c(OC)c1)C2 | > 100 | > 100 | > 100 | –
43 | 4 | – | COc1cc(OC)c2c(c1)O[C@H](c1cc(OC)c(OC)c(OC)c1)[C@@H](OC(=O)c1ccc(OC)c(OC)c1)C2=O | – | – | – | –
44 | 10.6 | – | COc1cc(OC)c2c(c1)O[C@H](c1cc(OC)c(OC)c(OC)c1)[C@H](OC(=O)c1ccc(F)c(NC(=O)c3ccc(F)c(NC(=O)c4ccc(OC)c(OC)c4)c3)c1)C2 | – | – | – | –
45 | 6.9 | 0.021 | COc1cc(OC)c2c(c1)O[C@H](c1cc(OC)c(OC)c(OC)c1)[C@H](OC(=O)c1cc(OC)c(OC)c(OC)c1)C2 | > 100 | > 100 | > 100 | –
46 | 9.8 | – | COc1cc(OC)c2c(c1)O[C@H](c1cc(OC)c(OC)c(OC)c1)[C@H](OC(=O)c1ccc(F)c(NC(C)=O)c1)C2 | > 100 | > 100 | > 100 | –
47 | 23.3 | – | COc1cc(OC)c2c(c1)O[C@H](c1cc(OC)c(OC)c(OC)c1)[C@H](OC(=O)c1ccc(F)c(NC(=O)/C=C/c3cc(OC)c(OC)c(OC)c3)c1)C2 | > 100 | > 100 | > 100 | –
48 | 3 | – | COc1ccc(C(=O)O[C@H]2C(=O)c3c(OC)cc(OC)cc3O[C@@H]2c2cc(OC)c(OC)c(OC)c2)cc1 | – | – | – | –
49 | 4.5 | – | COc1cc(OC)c2c(c1)O[C@H](c1cc(OC)c(OC)c(OC)c1)[C@H](OC(=O)Cc1ccc(OC)c(OC)c1)C2 | – | – | – | –
50 | 4.2 | – | COc1ccc(CC(=O)O[C@@H]2Cc3c(OC)cc(OC)cc3O[C@@H]2c2cc(OC)c(OC)c(OC)c2)cc1 | – | – | – | –
